Assays:
Assay in all cases: cells
COLO-800 = format: functional, cell-based, Homo sapiens; conditions: Homo sapiens, COLO-800;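 further: growth inhibition of COLO-800 cells, read out with a cell viability assay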
Description: SANGER: Inhibition of human COLO-800 cell growth in a cell viability assay.

COLO-824 = format: functional, cell-based, Homo sapiens; conditions: Homo sapiens, COLO-824
Description: SANGER: Inhibition of human COLO-824 cell growth in a cell viability assay.

CTB-1 = format: functional, cell-based, Homo sapiens; conditions: Homo sapiens, CTB-1
Description: SANGER: Inhibition of human CTB-1 cell growth in a cell viability assay.

CW-2 = format: functional, cell-based, Homo sapiens; conditions: Homo sapiens, CW-2;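 further: growth inhibition of CW-2 cells, read out by a cell viability assay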
Description: SANGER: Inhibition of human CW-2 cell growth in a cell viability assay.

DB = format: functional, cell-based, Homo sapiens; conditions: Homo sapiens, DB
Description: SANGER: Inhibition of human DB cell growth in a cell viability assay.

DMS-114 = format: functional, cell-based, Homo sapiens; conditions: Homo sapiens, DMS-114
DOHH-2 = format: functional, cell-based, Homo sapiens; conditions: Homo sapiens, DOHH-2;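 further: growth inhibition of human DOHH-2 cells, read out with a cell viability assay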
Description: SANGER: Inhibition of human DOHH-2 cell growth in a cell viability assay.

EM-2 = format: functional, cell-based, Homo sapiens; conditions: Homo sapiens, EM-2;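 further: growth inhibition of EM-2 cells, read out with a cell viability assay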
Description: SANGER: Inhibition of human EM-2 cell growth in a cell viability assay.

ES7 = format: functional, cell-based, Homo sapiens; conditions: Homo sapiens, ES7;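 further: growth inhibition of cultured human ES7 cells, read out as cell viability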
Description: SANGER: Inhibition of human ES7 cell growth in a cell viability assay.

EW-1 = format: functional, cell-based, Homo sapiens; conditions: Homo sapiens, EW-1;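 further: growth inhibition of the human EW-1 cell line, read out by a cell viability assay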
Description: SANGER: Inhibition of human EW-1 cell growth in a cell viability assay.

GI-1 = format: functional, cell-based, Homo sapiens; conditions: Homo sapiens, GI-1;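 further: growth inhibition of human GI-1 cells, measured with a cell viability readout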
Description: SANGER: Inhibition of human GI-1 cell growth in a cell viability assay.

GOTO = format: functional, cell-based, Homo sapiens; conditions: Homo sapiens, GOTO;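 further: growth inhibition of GOTO cells, read out by a cell viability assay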
Description: SANGER: Inhibition of human GOTO cell growth in a cell viability assay.

GR-ST = format: functional, cell-based, Homo sapiens; conditions: Homo sapiens, GR-ST
Description: SANGER: Inhibition of human GR-ST cell growth in a cell viability assay.

HT = format: functional, cell-based, Homo sapiens; conditions: Homo sapiens, HT
Description: SANGER: Inhibition of human HT cell growth in a cell viability assay.

IST-MES1 = format: functional, cell-based, Homo sapiens; conditions: Homo sapiens, IST-MES1;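 further: growth inhibition of IST-MES1 cells, measured with a cell viability assay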
Description: SANGER: Inhibition of human IST-MES1 cell growth in a cell viability assay.

K5 = format: functional, cell-based, Homo sapiens; conditions: Homo sapiens, K5
Description: SANGER: Inhibition of human K5 cell growth in a cell viability assay.

KINGS-1 = format: functional, cell-based, Homo sapiens; conditions: Homo sapiens, KINGS-1;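 further: cell viability assay measuring suppression of KINGS-1 cell growth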
Description: SANGER: Inhibition of human KINGS-1 cell growth in a cell viability assay.

KNS-81-FD = format: functional, cell-based, Homo sapiens; conditions: Homo sapiens, KNS-81-FD;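 further: growth inhibition of KNS-81-FD cells, read out with a cell viability assay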
Description: SANGER: Inhibition of human KNS-81-FD cell growth in a cell viability assay.

LB2518-MEL = format: functional, cell-based; conditions: Homo sapiens;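 further: growth inhibition of human LB2518-MEL cells, measured with a cell viability assay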
Description: SANGER: Inhibition of human LB2518-MEL cell growth in a cell viability assay.

ML-2 = format: functional, cell-based, Homo sapiens; conditions: Homo sapiens, ML-2;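 further: growth inhibition of ML-2 cells, measured with a cell viability readout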
Description: SANGER: Inhibition of human ML-2 cell growth in a cell viability assay.

MOLT-16 = format: functional, cell-based, Homo sapiens; conditions: Homo sapiens, MOLT-16;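 further: growth inhibition of human MOLT-16 cells, read out with a cell viability assay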
Description: SANGER: Inhibition of human MOLT-16 cell growth in a cell viability assay.

MSTO-211H = format: functional, cell-based, Homo sapiens; conditions: Homo sapiens, MSTO-211H
Description: SANGER: Inhibition of human MSTO-211H cell growth in a cell viability assay.

MZ1-PC = format: functional, cell-based, Homo sapiens; conditions: Homo sapiens, MZ1-PC;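 further: cell viability assay measuring growth inhibition of human MZ1-PC cells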
Description: SANGER: Inhibition of human MZ1-PC cell growth in a cell viability assay.

MZ2-MEL = format: functional, cell-based, Homo sapiens; conditions: Homo sapiens, MZ2-MEL;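 further: growth inhibition of MZ2-MEL cells read out with a cell viability assay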
Description: SANGER: Inhibition of human MZ2-MEL cell growth in a cell viability assay.

NB6 = format: functional, cell-based, Homo sapiens; conditions: Homo sapiens, NB6
Description: SANGER: Inhibition of human NB6 cell growth in a cell viability assay.

NB69 = format: functional, cell-based, Homo sapiens; conditions: Homo sapiens, NB69;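 further: growth inhibition of NB69 cells, determined by a cell viability assay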
Description: SANGER: Inhibition of human NB69 cell growth in a cell viability assay.

NCI-H1155 = format: functional, cell-based, Homo sapiens; conditions: Homo sapiens, NCI-H1155;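 further: cell growth inhibition measured by a viability assay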
Description: SANGER: Inhibition of human NCI-H1155 cell growth in a cell viability assay.

NCI-H1299 = format: functional, cell-based; conditions: Homo sapiens;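 further: growth inhibition of human NCI-H1299 cells, read out by a cell viability assay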
Description: SANGER: Inhibition of human NCI-H1299 cell growth in a cell viability assay.

NCI-H1581 = format: functional, cell-based, Homo sapiens; conditions: Homo sapiens, NCI-H1581;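 further: cell growth inhibition read out by a viability assay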
Description: SANGER: Inhibition of human NCI-H1581 cell growth in a cell viability assay.

NCI-H1838 = format: functional, cell-based, Homo sapiens; conditions: Homo sapiens, NCI-H1838;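 further: growth inhibition of NCI-H1838 cells, determined with a cell viability readout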
Description: SANGER: Inhibition of human NCI-H1838 cell growth in a cell viability assay.

NH-12 = format: functional, cell-based, Homo sapiens; conditions: Homo sapiens, NH-12;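 further: growth inhibition of NH-12 cells, read out with a cell viability assay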
Description: SANGER: Inhibition of human NH-12 cell growth in a cell viability assay.

NMC-G1 = format: functional, cell-based, Homo sapiens; conditions: Homo sapiens, NMC-G1;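 further: growth inhibition of the NMC-G1 cell line, measured with a cell viability read-out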
Description: SANGER: Inhibition of human NMC-G1 cell growth in a cell viability assay.

NOS-1 = format: functional, cell-based, Homo sapiens; conditions: Homo sapiens, NOS-1;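 further: growth inhibition of the human NOS-1 cell line, read out with a cell viability assay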
Description: SANGER: Inhibition of human NOS-1 cell growth in a cell viability assay.

NTERA-2-cl-D1 = format: functional, cell-based, Homo sapiens; conditions: Homo sapiens, NTERA-2-cl-D1;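 further: inhibition of cell growth, measured with a cell viability assay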
Description: SANGER: Inhibition of human NTERA-S-cl-D1 cell growth in a cell viability assay.

OCI-AML2 = format: functional, cell-based, Homo sapiens; conditions: Homo sapiens, OCI-AML2;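 further: growth inhibition of OCI-AML2 cells, read out with a cell viability assay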
Description: SANGER: Inhibition of human OCI-AML2 cell growth in a cell viability assay.

ONS-76 = format: functional, cell-based, Homo sapiens; conditions: Homo sapiens, ONS-76;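 further: growth inhibition of human ONS-76 cells, read out with a cell viability assay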
Description: SANGER: Inhibition of human ONS-76 cell growth in a cell viability assay.

RH-1 = format: functional, cell-based, Homo sapiens; conditions: Homo sapiens, RH-1;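 further: growth inhibition of human RH-1 cells, read out with a cell viability assay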
Description: SANGER: Inhibition of human RH-1 cell growth in a cell viability assay.

Ramos-2G6-4C10 = format: functional, cell-based, Homo sapiens; conditions: Homo sapiens, Ramos-2G6-4C10;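 further: growth inhibition of the cell line, measured by a cell viability read-out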
Description: SANGER: Inhibition of human Ramos-2G6-4C10 cell growth in a cell viability assay.

SBC-1 = format: functional, cell-based, Homo sapiens; conditions: Homo sapiens, SBC-1;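 further: cell viability assay measuring growth inhibition of the SBC-1 cell line, IC50 being the concentration that halves growth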
Description: SANGER: Inhibition of human SBC-1 cell growth in a cell viability assay.

SF-268 = format: functional, cell-based, Homo sapiens; conditions: Homo sapiens, SF-268;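 further: growth inhibition of SF-268 cells determined with a cell viability assay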
Description: SANGER: Inhibition of human SF268 cell growth in a cell viability assay.

SK-NEP-1 = format: functional, cell-based, Homo sapiens; conditions: Homo sapiens, SK-NEP-1;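 further: growth inhibition of human SK-NEP-1 cells, read out by a cell viability assay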
Description: SANGER: Inhibition of human SK-NEP-1 cell growth in a cell viability assay.

A101D = format: functional, cell-based, Homo sapiens; conditions: Homo sapiens, A101D;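 further: growth inhibition of the cell line, measured with a viability assay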
Description: SANGER: Inhibition of human A101D cell growth in a cell viability assay.

BV-173 = format: functional, cell-based, Homo sapiens; conditions: Homo sapiens, BV-173
Description: SANGER: Inhibition of human BV-173 cell growth in a cell viability assay.

TE-10 = format: functional, cell-based, Homo sapiens; conditions: Homo sapiens, TE-10;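 further: growth inhibition of TE-10 cells, measured by a cell viability assay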
Description: SANGER: Inhibition of human TE-10 cell growth in a cell viability assay.

TE-6 = format: functional, cell-based, Homo sapiens; conditions: Homo sapiens, TE-6;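 further: growth inhibition of TE-6 cells, read out with a cell viability assay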
Description: SANGER: Inhibition of human TE-6 cell growth in a cell viability assay.

TE-9 = format: functional, cell-based, Homo sapiens; conditions: Homo sapiens, TE-9;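 further: cell growth inhibition, measured with a cell viability readout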
Description: SANGER: Inhibition of human TE-9 cell growth in a cell viability assay.

TGW = format: functional, cell-based, Homo sapiens; conditions: Homo sapiens, TGW;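 further: growth inhibition of human TGW cells, read out with a cell viability assay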
Description: SANGER: Inhibition of human TGW cell growth in a cell viability assay.

UACC-257 = format: functional, cell-based, Homo sapiens; conditions: Homo sapiens, UACC-257
Description: SANGER: Inhibition of human UACC-257 cell growth in a cell viability assay.

no-11 = format: functional, cell-based, Homo sapiens; conditions: Homo sapiens;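 further: growth inhibition of human NO-11 cells, read out with a cell viability assay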
Description: SANGER: Inhibition of human no-11 cell growth in a cell viability assay.

COLO-668 = format: functional, cell-based, Homo sapiens; conditions: Homo sapiens, COLO-668
Description: SANGER: Inhibition of human COLO-668 cell growth in a cell viability assay.

Compound: CCCCCCCCCCCC1=C(O)C(=O)C=C(O)C1=O [EMBELIN]
- IC50 (COLO-800): > 32000 nM
- IC50 (COLO-824): > 32000 nM
- IC50 (CTB-1): 28000 nM
- IC50 (CW-2): > 32000 nM
- IC50 (DB): > 32000 nM
- IC50 (DMS-114): > 32000 nM
- IC50 (DOHH-2): 7570 nM
- IC50 (EM-2): > 32000 nM
- IC50 (ES7): 6600 nM
- IC50 (EW-1): 28600 nM
- IC50 (GI-1): 3760 nM
- IC50 (GOTO): 23600 nM
- IC50 (GR-ST): 5800 nM
- IC50 (HT): 5510 nM
- IC50 (IST-MES1): > 32000 nM
- IC50 (K5): > 32000 nM
- IC50 (KINGS-1): > 32000 nM
- IC50 (KNS-81-FD): 19500 nM
- IC50 (LB2518-MEL): > 32000 nM
- IC50 (ML-2): 12400 nM
- IC50 (MOLT-16): 11900 nM
- IC50 (MSTO-211H): > 32000 nM
- IC50 (MZ1-PC): 5710 nM
- IC50 (MZ2-MEL): 6330 nM
- IC50 (NB6): > 32000 nM
- IC50 (NB69): > 32000 nM
- IC50 (NCI-H1155): > 32000 nM
- IC50 (NCI-H1299): > 32000 nM
- IC50 (NCI-H1581): > 32000 nM
- IC50 (NCI-H1838): > 32000 nM
- IC50 (NH-12): 3880 nM
- IC50 (NMC-G1): 6970 nM
- IC50 (NOS-1): 4670 nM
- IC50 (NTERA-2-cl-D1): 1600 nM
- IC50 (OCI-AML2): 9250 nM
- IC50 (ONS-76): 8450 nM
- IC50 (RH-1): 13300 nM
- IC50 (Ramos-2G6-4C10): 17000 nM
- IC50 (SBC-1): 28500 nM
- IC50 (SF-268): 7900 nM
- IC50 (SK-NEP-1): 15100 nM
- IC50 (A101D): 6370 nM
- IC50 (BV-173): > 32000 nM
- IC50 (TE-10): 13300 nM
- IC50 (TE-6): 24300 nM
- IC50 (TE-9): 8500 nM
- IC50 (TGW): > 32000 nM
- IC50 (UACC-257): > 32000 nM
- IC50 (no-11): 9880 nM
- IC50 (COLO-668): > 32000 nM

Compound: Nc1ccccc1NC(=O)c1ccc(CNC(=O)OCc2cccnc2)cc1 [ENTINOSTAT]
- IC50 (COLO-800): > 5000 nM
- IC50 (COLO-824): > 5000 nM
- IC50 (CTB-1): 3050 nM
- IC50 (CW-2): 658 nM
- IC50 (DB): 1700 nM
- IC50 (DMS-114): > 5000 nM
- IC50 (DOHH-2): > 5000 nM
- IC50 (EM-2): 241 nM
- IC50 (ES7): 1800 nM
- IC50 (EW-1): 2770 nM
- IC50 (GI-1): 2930 nM
- IC50 (GOTO): 951 nM
- IC50 (GR-ST): 1570 nM
- IC50 (HT): 2100 nM
- IC50 (IST-MES1): 3180 nM
- IC50 (K5): 470 nM
- IC50 (KINGS-1): 4310 nM
- IC50 (KNS-81-FD): > 5000 nM
- IC50 (LB2518-MEL): 933 nM
- IC50 (ML-2): 2330 nM
- IC50 (MOLT-16): 410 nM
- IC50 (MSTO-211H): 1480 nM
- IC50 (MZ1-PC): 3620 nM
- IC50 (MZ2-MEL): > 5000 nM
- IC50 (NB6): 3560 nM
- IC50 (NB69): 598 nM
- IC50 (NCI-H1155): 3710 nM
- IC50 (NCI-H1299): > 5000 nM
- IC50 (NCI-H1581): > 5000 nM
- IC50 (NCI-H1838): > 5000 nM
- IC50 (NH-12): > 5000 nM
- IC50 (NMC-G1): 404 nM
- IC50 (NOS-1): 196 nM
- IC50 (NTERA-2-cl-D1): 201 nM
- IC50 (OCI-AML2): 3630 nM
- IC50 (ONS-76): 582 nM
- IC50 (RH-1): > 5000 nM
- IC50 (Ramos-2G6-4C10): 439 nM
- IC50 (SBC-1): 1430 nM
- IC50 (SF-268): 3480 nM
- IC50 (SK-NEP-1): 1200 nM
- IC50 (A101D): 403 nM
- IC50 (BV-173): 371 nM
- IC50 (TE-10): > 5000 nM
- IC50 (TE-6): > 5000 nM
- IC50 (TE-9): 1840 nM
- IC50 (TGW): 1080 nM
- IC50 (UACC-257): 3440 nM
- IC50 (no-11): > 5000 nM
- IC50 (COLO-668): > 5000 nM

Compound: CC1(C)CCC(c2ccc(Cl)cc2)=C(CN2CCN(c3ccc(C(=O)NS(=O)(=O)c4ccc(N[C@H](CCN5CCOCC5)CSc5ccccc5)c(S(=O)(=O)C(F)(F)F)c4)cc3)CC2)C1 [NAVITOCLAX]
- IC50 (COLO-800): > 2000 nM
- IC50 (COLO-824): 1020 nM
- IC50 (CTB-1): > 2000 nM
- IC50 (CW-2): > 2000 nM
- IC50 (DB): 571 nM
- IC50 (DMS-114): > 2000 nM
- IC50 (DOHH-2): 410 nM
- IC50 (EM-2): 199 nM
- IC50 (ES7): 1280 nM
- IC50 (EW-1): > 2000 nM
- IC50 (GI-1): > 2000 nM
- IC50 (GOTO): > 2000 nM
- IC50 (GR-ST): > 2000 nM
- IC50 (HT): > 2000 nM
- IC50 (IST-MES1): > 2000 nM
- IC50 (K5): > 2000 nM
- IC50 (KINGS-1): > 2000 nM
- IC50 (KNS-81-FD): 440 nM
- IC50 (LB2518-MEL): > 2000 nM
- IC50 (ML-2): 19.8 nM
- IC50 (MOLT-16): 653 nM
- IC50 (MSTO-211H): > 2000 nM
- IC50 (MZ1-PC): > 2000 nM
- IC50 (MZ2-MEL): > 2000 nM
- IC50 (NB6): > 2000 nM
- IC50 (NB69): 1460 nM
- IC50 (NCI-H1155): > 2000 nM
- IC50 (NCI-H1299): > 2000 nM
- IC50 (NCI-H1581): > 2000 nM
- IC50 (NCI-H1838): > 2000 nM
- IC50 (NH-12): 107 nM
- IC50 (NMC-G1): 811 nM
- IC50 (NOS-1): > 2000 nM
- IC50 (NTERA-2-cl-D1): 500 nM
- IC50 (OCI-AML2): > 2000 nM
- IC50 (ONS-76): > 2000 nM
- IC50 (RH-1): > 2000 nM
- IC50 (Ramos-2G6-4C10): 1740 nM
- IC50 (SBC-1): 1190 nM
- IC50 (SF-268): > 2000 nM
- IC50 (SK-NEP-1): 72.1 nM
- IC50 (A101D): > 2000 nM
- IC50 (BV-173): 23.1 nM
- IC50 (TE-10): > 2000 nM
- IC50 (TE-6): > 2000 nM
- IC50 (TE-9): > 2000 nM
- IC50 (TGW): 46.3 nM
- IC50 (UACC-257): > 2000 nM
- IC50 (no-11): > 2000 nM
- IC50 (COLO-668): > 2000 nM

Reference: ChEMBL document CHEMBL1201861, “Genomics of Drug Sensitity in Cancer screening data, Wellcome Trust Sanger Institute”
